In patent US8541379B2 (Ajinomoto Co., Inc., priority 2009, dated 2013):
Marks after values point to notes of the source that are not given here.

Assays:
[1] = molecular target: T1, human CaSR (Homo sapiens, UniProt P41180, E1011Q); assay: Evaluation of CaSR agonist activity (Ca2+ fluorescence, hCaSR-transfected 293E cells); format: cell-based
T1 construct: expressed in transfected cells; host or cells: 293E cells (EBNA1-expressing HEK293, ATCC CRL-10852), transient transfection with Fugene6
T1 sequence (P41180 20-1078 E1011Q): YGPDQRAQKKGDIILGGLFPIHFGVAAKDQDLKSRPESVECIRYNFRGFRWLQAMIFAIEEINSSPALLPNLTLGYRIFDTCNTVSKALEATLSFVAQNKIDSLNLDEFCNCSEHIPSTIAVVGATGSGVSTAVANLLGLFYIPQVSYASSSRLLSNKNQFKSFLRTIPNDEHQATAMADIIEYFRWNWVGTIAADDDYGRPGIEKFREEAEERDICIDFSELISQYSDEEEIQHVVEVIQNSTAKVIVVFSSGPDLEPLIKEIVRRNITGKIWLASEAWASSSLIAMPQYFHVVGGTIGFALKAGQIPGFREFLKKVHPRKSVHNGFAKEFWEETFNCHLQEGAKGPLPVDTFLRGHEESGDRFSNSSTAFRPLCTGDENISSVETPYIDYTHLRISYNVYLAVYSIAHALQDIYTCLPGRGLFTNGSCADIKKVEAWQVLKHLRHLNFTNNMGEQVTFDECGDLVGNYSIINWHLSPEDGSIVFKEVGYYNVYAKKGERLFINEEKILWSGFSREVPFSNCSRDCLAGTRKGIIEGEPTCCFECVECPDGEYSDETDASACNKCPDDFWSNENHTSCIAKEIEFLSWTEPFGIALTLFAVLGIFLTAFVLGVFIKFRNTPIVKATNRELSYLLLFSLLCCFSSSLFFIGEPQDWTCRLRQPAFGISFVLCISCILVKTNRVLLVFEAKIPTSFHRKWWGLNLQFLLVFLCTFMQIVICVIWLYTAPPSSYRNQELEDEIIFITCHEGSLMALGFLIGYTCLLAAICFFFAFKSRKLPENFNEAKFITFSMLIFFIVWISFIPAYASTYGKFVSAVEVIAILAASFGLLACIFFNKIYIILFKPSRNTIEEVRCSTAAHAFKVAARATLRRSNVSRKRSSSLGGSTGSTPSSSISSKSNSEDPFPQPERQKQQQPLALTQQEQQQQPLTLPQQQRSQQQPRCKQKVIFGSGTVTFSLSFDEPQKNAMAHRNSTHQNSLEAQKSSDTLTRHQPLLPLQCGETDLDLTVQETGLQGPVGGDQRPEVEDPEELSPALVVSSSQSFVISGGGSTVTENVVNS
Protocol: 293E Cells (EBNA1-expresion HEK293 cells, ATCC No. CRL-10852) were cultivated in DMEN/Ham's-F12 (3.15/mL glucose-containing Dulbecco's modified Eagle medium, available from Nakaraitesk Company) supplemented with 10% fetal calf serum, in the presence of 200 μg/mL of G418 (available from Genetisin). The cultured cells were inoculated in F25 flask at a density of 3×10^6 cells/10 mL, the flask was allowed to stand over 24 hours in a CO2 incubator (5% CO2, 37° C.), and then the human CaSR-expression plasmid hCaSR/pcDNA3.1 was transformed or transfected with a reagent for transfection Fugene6 (available from Roche Company). The transfected plasmid was maintained in a CO2 incubator for 6 to 7 hours, then the cells were recovered using a 10% fetal calf serum-containing DMEM/Ham's-F12 and the cells were inoculated in each well of a poly-D-lysine coat 96-well plate (BD-Biocoat) at a density of 70,000 cells/well.
To each well of the 96-well plate, each test compound was dissolved in a 0.1% BSA-containing Assay Buffer in an amount of 50 μl/well, and then any change of the intensity of fluorescence was monitored over 3 minutes using FLEX Station (available from Molecular Devices Company).
Method for the Determination of EC50:
The difference (RFU (Max-Min)) between the maximum and minimum fluorescent intensities observed for each well before and after the addition of each specific test compound was determined by the automatic calculation using FLEX Station. The activity rate was calculated while the RFU (Max-Min) value observed when adding the compound at the maximum concentration was defined to be 100% and the RFU (Max-Min) value observed when using the 0.1% BSA-containing Assay Buffer free of any test compound was defined to be 0%, followed by subjecting the resulting data to the curve-fitting procedures using the spreadsheet software Xfit or Graph-Pad-Prism to thus determine the EC50 which was the concentration of the compound at the activity rate of 50%.
In addition, the same EC50-determining procedures used above were repeated except for using other dipeptides as Comparative Examples.

[2] = Paired comparison sensory test, solution of miso; format: in vivo, human; conditions: 10.0% miso solution, N=9
Protocol: More specifically, the sensory evaluation test was carried out according to the following procedures: Commercially available miso (ingredients: soybeans and barley) for popular use was dispersed in hot water in a concentration of 10.0% by mass to thus form a solution of miso. This solution was admixed with γ-Glu-Nva, γ-Glu-Cys-Gly, or γ-Glu-Abu as a test compound. According to the paired comparison test method (pair test), the panelists were requested to comparatively evaluate the following three samples and to judge whether “any of them was preferred or favorable since it could enhance the flavor and taste of the solution of miso without changing the balance between them”: (1) 0.02% by mass of γ-Glu-Cys-Gly whose kokumi-imparting activity was identical to 0.0004% by mass of γ-Glu-Nva; (2) 0.0004% by mass of γ-Glu-Abu, the amount of which was identical to 0.0004% by mass of γ-Glu-Nva; (3) 0.003% by mass of γ-Glu-Abu whose kokumi-imparting activity was identical to that observed for 0.0004% by mass of γ-Glu-Nva. The panelists used in this test were persons who had been engaged in the development of seasonings for foods over not less than one year of the cumulative time period and who could judge that the difference in the titer between γ-Glu-Cys-Gly and γ-Glu-Val-Gly added to a solution having umami/salty taste is about 10 times (while confirming the ability of these persons at regular intervals). The evaluation was carried out at N (the number of panelists used)=9.

EC50 ([1]; 293E cells transfected with hCaSR/pcDNA3.1, Calcium 4 fluorescence, FLEX Station): 120 nM
Structure (SMILES): CCC[C@H](NC(=O)CC[C@H](N)C(=O)O)C(=O)O [γ-Glu-Nva, γ-L-glutamyl-L-norvaline]
CaSR agonist activity ([1]; compared with other dipeptides): strong CaSR agonist activity comparable to that observed for γ-Glu-Cys | No. of Panelists who judged γ-Glu-Nva rather preferred ([2]; 0.0004 wt % γ-Glu-Nva vs 0.0004 wt % γ-Glu-Abu, significant level of 1%): 9/9*** | No. of Panelists who judged γ-Glu-Nva rather preferred ([2]; 0.0004 wt % γ-Glu-Nva vs 0.003 wt % γ-Glu-Abu, significant level of 1%): 9/9*** | No. of Panelists who judged γ-Glu-Nva rather preferred ([2]; 0.0004 wt % γ-Glu-Nva vs 0.02 wt % γ-Glu-Cys-Gly, significant level of 5%): 8/9**
